# ChEMBL document CHEMBL1125622 (J Med Chem, 1991)
# T1: Dopamine beta-hydroxylase (Bos taurus) (UniProt P15101)
# T1 sequence (whole entry): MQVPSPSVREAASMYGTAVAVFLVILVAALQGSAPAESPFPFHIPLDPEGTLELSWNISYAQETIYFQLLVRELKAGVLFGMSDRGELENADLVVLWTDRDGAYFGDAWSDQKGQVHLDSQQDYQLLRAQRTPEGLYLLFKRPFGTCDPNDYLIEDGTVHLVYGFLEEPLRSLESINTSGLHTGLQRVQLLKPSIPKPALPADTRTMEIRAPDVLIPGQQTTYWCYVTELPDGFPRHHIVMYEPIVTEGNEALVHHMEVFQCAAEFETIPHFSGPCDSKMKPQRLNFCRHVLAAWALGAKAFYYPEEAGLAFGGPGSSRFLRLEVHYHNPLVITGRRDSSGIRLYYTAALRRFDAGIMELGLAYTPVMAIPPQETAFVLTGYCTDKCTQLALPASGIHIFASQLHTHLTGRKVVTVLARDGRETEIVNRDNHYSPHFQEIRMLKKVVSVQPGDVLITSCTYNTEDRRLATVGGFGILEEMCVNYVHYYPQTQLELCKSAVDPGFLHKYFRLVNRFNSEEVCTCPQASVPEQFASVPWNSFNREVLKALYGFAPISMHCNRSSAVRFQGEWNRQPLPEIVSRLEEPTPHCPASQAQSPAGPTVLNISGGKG
# B1: Dopamine beta-hydroxylase (Bos taurus), P15101 (protein)
# chain: MQVPSPSVREAASMYGTAVAVFLVILVAALQGSAPAESPFPFHIPLDPEGTLELSWNISYAQETIYFQLLVRELKAGVLFGMSDRGELENADLVVLWTDRDGAYFGDAWSDQKGQVHLDSQQDYQLLRAQRTPEGLYLLFKRPFGTCDPNDYLIEDGTVHLVYGFLEEPLRSLESINTSGLHTGLQRVQLLKPSIPKPALPADTRTMEIRAPDVLIPGQQTTYWCYVTELPDGFPRHHIVMYEPIVTEGNEALVHHMEVFQCAAEFETIPHFSGPCDSKMKPQRLNFCRHVLAAWALGAKAFYYPEEAGLAFGGPGSSRFLRLEVHYHNPLVITGRRDSSGIRLYYTAALRRFDAGIMELGLAYTPVMAIPPQETAFVLTGYCTDKCTQLALPASGIHIFASQLHTHLTGRKVVTVLARDGRETEIVNRDNHYSPHFQEIRMLKKVVSVQPGDVLITSCTYNTEDRRLATVGGFGILEEMCVNYVHYYPQTQLELCKSAVDPGFLHKYFRLVNRFNSEEVCTCPQASVPEQFASVPWNSFNREVLKALYGFAPISMHCNRSSAVRFQGEWNRQPLPEIVSRLEEPTPHCPASQAQSPAGPTVLNISGGKG
# How the values were obtained:
# [1] = molecular target: T1, Dopamine beta-hydroxylase (Bos taurus); assay: Kinetic parameter kcat was measured for dopamine beta-monooxygenase
# [2] = molecular target: T1, Dopamine beta-hydroxylase (Bos taurus); assay: Kcat/Km value of the compound; parameters: unit not given here
# Rattus norvegicus = species: Rattus norvegicus; assay: The ability to inhibit dopamine uptake was measured in rat brain striatal synaptosomes; assay type: functional
# [3] = substrate: C[C@H](N)CSc1ccccc1; assay: (§1) Kinetic parameter Km was measured for dopamine beta-monooxygenase
# [4] = substrate: C[C@@H](N)CSc1ccccc1; assay: as §1
Molecule,k cat [1] [s⁻¹],Ratio [2],IC50 (Rattus norvegicus) [µM],Km [3] [mM],Km [4] [mM]
NCCCc1ccccc1,17,800,–,–,–
C[C@H](N)CSc1ccccc1,37,4800,6.5,–,–
NCCc1ccc(O)cc1,121,60000,–,–,–
C[C@@H](N)CSc1ccccc1,13,700,–,–,–
B1,–,–,–,7.7,19
